Results: patent US8603986B2, “Compounds and methods for modulating cadherin-mediated processes” (McGill University, priority 2005, dated 2013)
“Also recorded” adds a separate entry of the source. Marks after values point to notes of the source that are not given here.

Key:
[1] = molecular target: T1, N-cadherin/Fc chimeric protein (Homo sapiens, UniProt P19022); assay: Cadherin/Fc binding assay: phage ELISA on N-cadherin/Fc; set-up: key to ELISA Phage Binding to N-Cadherin/Fc Chimeric Protein 1.2 mM calcium / ELISA Phage Binding to N-Cadherin/Fc Chimeric Protein 2 mM EDTA / ELISA Phage Binding to Cadherin/Fc Chimeric Proteins N−: +: Phage bound to the chimeric protein; −: No phage bound to the chimeric protein
T1 construct: extracellular domain of human N-cadherin (Asp160-Ala724); purchased R&D Systems, Minneapolis, Minn
T1 sequence (P19022 160-724): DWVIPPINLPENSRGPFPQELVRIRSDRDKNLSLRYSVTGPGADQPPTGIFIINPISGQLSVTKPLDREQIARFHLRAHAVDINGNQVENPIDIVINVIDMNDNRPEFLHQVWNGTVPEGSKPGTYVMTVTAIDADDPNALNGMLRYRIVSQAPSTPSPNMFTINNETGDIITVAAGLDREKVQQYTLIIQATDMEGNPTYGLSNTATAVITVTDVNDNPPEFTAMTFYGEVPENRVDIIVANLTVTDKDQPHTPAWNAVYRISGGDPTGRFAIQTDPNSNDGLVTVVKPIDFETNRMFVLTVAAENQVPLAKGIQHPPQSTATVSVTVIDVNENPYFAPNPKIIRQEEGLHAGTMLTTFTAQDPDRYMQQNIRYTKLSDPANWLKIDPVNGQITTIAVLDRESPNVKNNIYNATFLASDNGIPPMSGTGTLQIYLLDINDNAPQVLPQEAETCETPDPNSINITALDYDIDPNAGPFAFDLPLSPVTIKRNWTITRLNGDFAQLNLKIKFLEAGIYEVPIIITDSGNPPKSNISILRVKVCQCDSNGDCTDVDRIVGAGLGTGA
From the text: (§1) The peptide libraries, Ph.D.-C7C™ and Ph.D.-12™ (New England BioLabs) were used in this study. These libraries are composed of 2×10^9 randomized 7 amino acid sequences flanked by cysteine residues and linear 12 amino acid sequences, respectively. The amino acid sequences are incorporated into the minor coat protein, pIII, of M13 phage. The N-cadherin/Fc chimeric protein (R&D Systems, Minneapolis, Minn.) consists of the extracellular domain of human N-cadherin (Asp160-Ala724) and the Fc region of human IgG1. The E-cadherin/Fc chimeric protein (R&D Systems, Minneapolis, Minn.) consists of the extracellular domain of human E-cadherin (Asp155-Ile707) and the Fc region of human IgG1.
The binding of each clone to the cadherin/Fc chimeric proteins was confirmed by ELISA. Wells of ProBind microtiter plates (Falcon) were coated with either N-cadherin/Fc or E-cadherin/Fc chimeric protein (100 ng/well) or human IgG1 (which contains the Fc fragment) (100 ng/well). […] Non-coated wells were also used to exclude any phage that bound to the plastic surface. […] M13 phage without any insert were used to control the non-specific binding of the phage itself to the target. […] […] Horseradish peroxidase substrate, TMB (Sigma), was added to each well (100 μl/well and after color development the reaction was stopped by addition of 100 μl 0.5 M sulphuric acid to each well. The intensity of the color was measured at 450 nm.
(§2) The phage clones shown to bind to the N-cadherin/Fc chimeric protein by ELISA were also evaluated for their ability to bind to E-cadherin/Fc and VE-cadherin/Fc chimeric proteins. The phage clones shown to bind to the E-cadherin/Fc chimeric protein by ELISA were also evaluated for their ability to bind to N-cadherin/Fc and VE-cadherin/Fc chimeric proteins. The same ELISA protocol described in the previous section was used to perform this evaluation with the exception that the wells were coated with either 100 ng N-cadherin/Fc, E-cadherin/Fc or VE-cadherin/Fc chimeric protein (R&D Systems, Minneapolis, Minn.).

[2] = molecular target: T2, E-cadherin/Fc chimeric protein (Homo sapiens, UniProt P12830); assay: Cadherin/Fc binding assay: phage ELISA on E-cadherin/Fc; set-up: key: +: Phage bound to the chimeric protein; −: No phage bound to the chimeric protein
T2 construct: extracellular domain of human E-cadherin (Asp155-Ile707); purchased R&D Systems, Minneapolis, Minn
T2 sequence (P12830 155-707): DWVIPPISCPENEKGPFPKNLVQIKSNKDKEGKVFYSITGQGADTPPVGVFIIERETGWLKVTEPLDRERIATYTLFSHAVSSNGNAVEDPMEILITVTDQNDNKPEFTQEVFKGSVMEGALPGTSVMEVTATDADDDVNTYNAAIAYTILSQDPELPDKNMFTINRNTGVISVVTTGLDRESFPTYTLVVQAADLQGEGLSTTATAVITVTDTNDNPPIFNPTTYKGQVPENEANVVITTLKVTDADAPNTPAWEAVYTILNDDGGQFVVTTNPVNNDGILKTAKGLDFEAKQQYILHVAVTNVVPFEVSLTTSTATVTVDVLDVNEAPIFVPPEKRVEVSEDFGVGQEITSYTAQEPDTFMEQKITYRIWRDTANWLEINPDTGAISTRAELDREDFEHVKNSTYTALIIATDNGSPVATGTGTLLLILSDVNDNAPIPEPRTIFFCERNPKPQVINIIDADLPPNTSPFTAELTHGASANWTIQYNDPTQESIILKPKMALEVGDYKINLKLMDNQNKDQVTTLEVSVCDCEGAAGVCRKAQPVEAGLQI
From the text: as §1
(§3) The binding of each clone to the cadherin/Fc chimeric proteins was confirmed by ELISA. Wells of ProBind microtiter plates (Falcon) were coated with either N-cadherin/Fc or E-cadherin/Fc chimeric protein (100 ng/well) or human IgG1 (which contains the Fc fragment) (100 ng/well). After blocking the nonspecific sites with TBS containing 3% BSA and 1.2 mM CaCl2 for 1 h at 37° C., phage clones (10^9 pfu) diluted in TBST containing 3% BSA and 1.2 mM CaCl2 (100 μl/well). Non-coated wells were also used to exclude any phage that bound to the plastic surface. After 1 h incubation at room temperature, wells were washed 3 times with TBST containing 3% BSA and 1.2 mM CaCl2. M13 phage without any insert were used to control the non-specific binding of the phage itself to the target. Monoclonal anti-M13 antibody conjugated to horseradish peroxidase (Amersham Biosciences, Piscataway, N.J.) was diluted in TBST containing 3% BSA and 1.2 mM CaCl2 (1:2,000) and added to each well (100 μl/well). After 1 h incubation at room temperature, wells were washed three times with TBST containing 3% BSA and 1.2 mM CaCl2 and once with TBS containing 1.2 mM CaCl2. Horseradish peroxidase substrate, TMB (Sigma), was added to each well (100 μl/well and after color development the reaction was stopped by addition of 100 μl 0.5 M sulphuric acid to each well. The intensity of the color was measured at 450 nm.
as §2

[3] = molecular target: T3, VE-cadherin/Fc chimeric protein (Homo sapiens, UniProt P33151); assay: Cadherin specificity: phage ELISA on VE-cadherin/Fc; format: binding; set-up: key: +: Phage bound to the chimeric protein; −: No phage bound to the chimeric protein
T3 construct: purchased R&D Systems, Minneapolis, Minn
Experimental: as §3, §2

[4] = Table 7, Ph.D.-12 clones selected on E-cadherin/Fc
[5] = Table 6, Ph.D.-C7C clones selected on E-cadherin/Fc
[6] = Table 3, clones selected in the absence of calcium
[7] = Table 2, Ph.D.-C7C library clones

T3 sequence (P33151 with tags, fused parts or gaps limits assumed, species assumed): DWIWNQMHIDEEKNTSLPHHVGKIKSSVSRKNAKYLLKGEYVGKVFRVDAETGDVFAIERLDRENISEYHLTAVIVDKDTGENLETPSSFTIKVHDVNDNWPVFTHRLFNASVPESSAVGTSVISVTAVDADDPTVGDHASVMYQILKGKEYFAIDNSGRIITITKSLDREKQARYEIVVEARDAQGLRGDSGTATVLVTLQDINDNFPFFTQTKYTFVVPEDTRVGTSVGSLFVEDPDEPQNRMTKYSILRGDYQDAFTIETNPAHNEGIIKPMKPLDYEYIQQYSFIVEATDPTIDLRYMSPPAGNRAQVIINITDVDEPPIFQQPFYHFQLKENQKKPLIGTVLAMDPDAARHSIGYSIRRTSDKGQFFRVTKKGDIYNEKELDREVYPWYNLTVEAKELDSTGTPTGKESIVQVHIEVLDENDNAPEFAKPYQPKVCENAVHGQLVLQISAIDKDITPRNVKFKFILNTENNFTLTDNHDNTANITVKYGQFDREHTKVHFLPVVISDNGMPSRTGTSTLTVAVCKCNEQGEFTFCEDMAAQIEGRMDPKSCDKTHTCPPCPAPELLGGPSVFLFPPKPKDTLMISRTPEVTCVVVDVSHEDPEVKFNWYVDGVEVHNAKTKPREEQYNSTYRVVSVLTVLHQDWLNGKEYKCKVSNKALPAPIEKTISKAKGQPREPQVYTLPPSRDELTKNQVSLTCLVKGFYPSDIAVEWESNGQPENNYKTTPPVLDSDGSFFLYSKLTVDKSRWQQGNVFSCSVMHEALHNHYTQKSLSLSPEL

Sequence | ELISA Phage Binding to Cadherin/Fc Chimeric Proteins N− [1, 4] | ELISA Phage Binding to Cadherin/Fc Chimeric Proteins E− [2, 4] | ELISA Phage Binding to Cadherin/Fc Chimeric Proteins VE− [3, 4] | ELISA Phage Binding to Cadherin/Fc Chimeric Proteins N− [1, 5] | ELISA Phage Binding to Cadherin/Fc Chimeric Proteins E− [2, 5] | ELISA Phage Binding to Cadherin/Fc Chimeric Proteins VE− [3, 5] | ELISA Phage Binding to N-Cadherin/Fc Chimeric Protein 1.2 mM calcium [1, 7] | ELISA Phage Binding to N-Cadherin/Fc Chimeric Protein 2 mM EDTA [1, 7] | ELISA Phage Binding to Cadherin/Fc Chimeric Proteins E− [2, 7] | ELISA Phage Binding to Cadherin/Fc Chimeric Proteins VE− [3, 7] | further results
SWTFYWPDAQLG [Ec 12-06] | + | + | − |  |  |  |  |  |  |  | 
AWTWSLPTLPQS [Ec 12-a5] | + | + | − |  |  |  |  |  |  |  | 
WTWHWPPCC [Ec a22] |  |  |  | + | + | − |  |  |  |  | 
WYVCVGAHC [NoCa1] |  |  |  |  |  |  |  |  |  |  | phage binding to N-cadherin/Fc chimeric protein by ELISA [1]: good ELISA signal; also recorded: strong ELISA signal; ELISA Phage Binding to N-Cadherin/Fc Chimeric Protein 1.2 mM calcium [1, 6]: +*; ELISA Phage Binding to N-Cadherin/Fc Chimeric Protein 2 mM EDTA [1, 6]: +; ELISA Phage Binding to Cadherin/Fc Chimeric Proteins E− [2, 6]: −**; ELISA Phage Binding to Cadherin/Fc Chimeric Proteins VE− [3, 6]: −
WTVCPIGNC [Nc 8] |  |  |  |  |  |  | + | − | − | − | 
WQWCFKATC [Ec 21] |  |  |  | + | + | − |  |  |  |  | 
CSKYNSPLC [Ec a4] |  |  |  | + | + | − |  |  |  |  | 
EWQYHWPTLQSR [Ec 12-22] | + | + | − |  |  |  |  |  |  |  | 
WELVQCLTC [Ec 1] |  |  |  | + | + | − |  |  |  |  | 
GWTVFYPDNLRP [Ec 12-18] | + | + | − |  |  |  |  |  |  |  | 

Continued, in another order:

ELISA Phage Binding to Cadherin/Fc Chimeric Proteins N− [1, 4] | ELISA Phage Binding to Cadherin/Fc Chimeric Proteins E− [2, 4] | ELISA Phage Binding to Cadherin/Fc Chimeric Proteins VE− [3, 4] | ELISA Phage Binding to Cadherin/Fc Chimeric Proteins N− [1, 5] | ELISA Phage Binding to Cadherin/Fc Chimeric Proteins E− [2, 5] | ELISA Phage Binding to Cadherin/Fc Chimeric Proteins VE− [3, 5] | ELISA Phage Binding to N-Cadherin/Fc Chimeric Protein 1.2 mM calcium [1, 7] | ELISA Phage Binding to N-Cadherin/Fc Chimeric Protein 2 mM EDTA [1, 7] | ELISA Phage Binding to Cadherin/Fc Chimeric Proteins E− [2, 7] | ELISA Phage Binding to Cadherin/Fc Chimeric Proteins VE− [3, 7] | Sequence | further results
 |  |  |  |  |  | + | − | − | − | WLQPYFPSY [Nc a5] | 
 |  |  |  |  |  | + | − | − | − | WHTSWSDTY [Nc 19] | 
 |  |  |  |  |  | + | − | − | − | WELCVSSSC [Nc 25] | 
